# Reference: ChEMBL document CHEMBL5214923, “Contemporary mTOR inhibitor scaffolds to diseases breakdown: A patent review (2015-2021)” (Eur J Med Chem, 2022)
# Assays:
# mTORC1 [1] = target: T1, mTORC1 (Homo sapiens, UniProt P42345+Q8N122+Q9BVC4); experiment: Inhibition of mTORC1 in human PC-3 cells assessed as measuring phosphorylated S6K level incubated for 24 hrs by AlphaLISA assay; format: cell-based
# mTORC2 [2] = target: T2, mTORC2 (Homo sapiens, UniProt P42345+Q6R327+Q9BPZ7+Q9BVC4); experiment: Inhibition of mTORC2 in human PC-3 cells assessed as measuring phosphorylated Akt level incubated for 24 hrs by AlphaLISA assay; format: cell-based
# [3] = target: T3, Serine/threonine-protein kinase mTOR (Homo sapiens, UniProt P42345); experiment: Inhibition of human mTOR assessed as measuring phosphorylated p70S6K level by TR-FRET assay
# mTORC1 [4] = target: T1, mTORC1; experiment: Inhibition of mTORC1 (unknown origin) assessed as measuring phosphorylated p7OS6K level at 0.2 uM relative to control; format: protein-complex assay
# mTORC1 [5] = target: T1, mTORC1; experiment: Inhibition of mTORC1 (unknown origin) assessed as measuring phosphorylated 4EBP1 level at 1 uM relative to control; format: protein-complex assay
# mTORC2 (Homo sapiens) = mTORC2 (Homo sapiens) (UniProt P42345+Q6R327+Q9BVC4+Q9BPZ7); experiment: Inhibition of mTORC2 (unknown origin) assessed as measuring phosphorylated AKT at 0.5 uM relative to control; format: protein-complex assay
# mTORC1 [6] = target: T1, mTORC1; experiment: Inhibition of mTORC1 (unknown origin); format: protein-complex assay
# [7] = target: Phosphatidylinositol 4,5-bisphosphate 3-kinase catalytic subunit gamma isoform (Homo sapiens, UniProt P48736); experiment: Inhibition of human PI3Kgamma preincubated for 15 mins followed by ATP addition measured after 1 hr by TR-FRET assay
# Sequence of Phosphatidylinositol 4,5-bisphosphate 3-kinase catalytic subunit gamma isoform (P48736 whole entry, canonical isoform): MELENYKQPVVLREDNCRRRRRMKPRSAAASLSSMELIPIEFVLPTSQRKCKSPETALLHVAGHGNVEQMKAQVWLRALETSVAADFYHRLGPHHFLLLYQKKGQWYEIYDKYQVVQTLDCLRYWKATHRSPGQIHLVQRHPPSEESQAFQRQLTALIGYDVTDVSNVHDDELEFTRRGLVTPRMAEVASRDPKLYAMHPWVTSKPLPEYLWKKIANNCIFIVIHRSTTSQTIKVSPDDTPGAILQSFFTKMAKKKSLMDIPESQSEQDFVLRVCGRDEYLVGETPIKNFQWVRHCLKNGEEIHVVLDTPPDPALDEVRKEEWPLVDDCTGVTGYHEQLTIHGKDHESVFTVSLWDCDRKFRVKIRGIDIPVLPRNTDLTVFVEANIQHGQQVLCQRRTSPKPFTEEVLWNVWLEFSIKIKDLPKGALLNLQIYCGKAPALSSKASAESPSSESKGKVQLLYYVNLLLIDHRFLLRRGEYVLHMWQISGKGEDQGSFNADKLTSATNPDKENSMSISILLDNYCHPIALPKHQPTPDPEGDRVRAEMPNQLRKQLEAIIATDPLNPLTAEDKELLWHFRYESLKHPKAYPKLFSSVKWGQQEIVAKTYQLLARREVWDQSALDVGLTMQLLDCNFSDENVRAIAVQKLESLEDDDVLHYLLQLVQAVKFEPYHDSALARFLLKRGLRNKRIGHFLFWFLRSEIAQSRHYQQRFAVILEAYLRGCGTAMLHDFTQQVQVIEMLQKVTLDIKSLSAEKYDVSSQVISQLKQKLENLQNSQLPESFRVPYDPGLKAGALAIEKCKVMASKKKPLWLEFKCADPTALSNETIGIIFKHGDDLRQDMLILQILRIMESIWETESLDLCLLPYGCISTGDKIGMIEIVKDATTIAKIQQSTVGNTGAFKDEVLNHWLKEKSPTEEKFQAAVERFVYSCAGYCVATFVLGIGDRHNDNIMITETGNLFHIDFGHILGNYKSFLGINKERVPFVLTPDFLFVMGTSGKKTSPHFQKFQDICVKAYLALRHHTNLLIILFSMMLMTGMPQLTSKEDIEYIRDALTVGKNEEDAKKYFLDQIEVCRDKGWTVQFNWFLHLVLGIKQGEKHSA
# [8] = target: T4, Phosphatidylinositol 4,5-bisphosphate 3-kinase catalytic subunit delta isoform (Homo sapiens, UniProt O00329); experiment: Inhibition of human PI3Kdelta preincubated for 15 mins followed by ATP addition measured after 1 hr by TR-FRET assay
# T4 sequence (O00329 whole entry): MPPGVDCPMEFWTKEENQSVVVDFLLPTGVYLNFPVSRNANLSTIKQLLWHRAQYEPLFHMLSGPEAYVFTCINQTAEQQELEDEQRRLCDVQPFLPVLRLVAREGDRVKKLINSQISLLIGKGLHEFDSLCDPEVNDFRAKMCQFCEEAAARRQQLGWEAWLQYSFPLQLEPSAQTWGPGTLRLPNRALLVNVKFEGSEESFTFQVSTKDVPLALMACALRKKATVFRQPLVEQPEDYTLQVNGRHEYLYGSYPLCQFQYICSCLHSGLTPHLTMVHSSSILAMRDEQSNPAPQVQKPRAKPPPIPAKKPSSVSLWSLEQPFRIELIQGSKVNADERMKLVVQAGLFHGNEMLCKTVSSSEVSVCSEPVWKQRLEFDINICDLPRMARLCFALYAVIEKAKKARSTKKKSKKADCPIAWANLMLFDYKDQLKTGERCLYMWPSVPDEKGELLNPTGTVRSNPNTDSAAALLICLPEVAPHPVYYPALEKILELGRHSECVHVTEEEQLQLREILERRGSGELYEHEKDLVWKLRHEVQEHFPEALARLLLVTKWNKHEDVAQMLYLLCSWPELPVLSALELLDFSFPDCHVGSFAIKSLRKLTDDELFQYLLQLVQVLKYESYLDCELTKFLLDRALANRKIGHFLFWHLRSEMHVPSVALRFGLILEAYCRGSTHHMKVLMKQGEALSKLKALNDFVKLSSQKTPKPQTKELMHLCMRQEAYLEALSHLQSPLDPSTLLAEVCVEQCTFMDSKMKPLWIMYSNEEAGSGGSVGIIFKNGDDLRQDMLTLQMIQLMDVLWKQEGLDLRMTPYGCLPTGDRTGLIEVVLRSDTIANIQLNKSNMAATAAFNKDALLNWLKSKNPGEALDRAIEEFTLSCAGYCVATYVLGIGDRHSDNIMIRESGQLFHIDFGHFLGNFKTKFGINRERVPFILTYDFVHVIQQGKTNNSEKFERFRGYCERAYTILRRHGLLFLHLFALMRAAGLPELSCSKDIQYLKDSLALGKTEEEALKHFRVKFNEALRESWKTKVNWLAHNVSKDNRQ
# [9] = target: T3, Serine/threonine-protein kinase mTOR; experiment: Inhibition of mTOR (unknown origin) assessed as residual activity at 30 nM relative to control; values are per cent of control
# [10] = target: Phosphatidylinositol 4,5-bisphosphate 3-kinase catalytic subunit alpha isoform (Homo sapiens, UniProt P42336); experiment: Inhibition of human PI3Kalpha preincubated for 15 mins followed by ATP addition measured after 1 hr by TR-FRET assay
# Sequence of Phosphatidylinositol 4,5-bisphosphate 3-kinase catalytic subunit alpha isoform (P42336 whole entry, canonical isoform): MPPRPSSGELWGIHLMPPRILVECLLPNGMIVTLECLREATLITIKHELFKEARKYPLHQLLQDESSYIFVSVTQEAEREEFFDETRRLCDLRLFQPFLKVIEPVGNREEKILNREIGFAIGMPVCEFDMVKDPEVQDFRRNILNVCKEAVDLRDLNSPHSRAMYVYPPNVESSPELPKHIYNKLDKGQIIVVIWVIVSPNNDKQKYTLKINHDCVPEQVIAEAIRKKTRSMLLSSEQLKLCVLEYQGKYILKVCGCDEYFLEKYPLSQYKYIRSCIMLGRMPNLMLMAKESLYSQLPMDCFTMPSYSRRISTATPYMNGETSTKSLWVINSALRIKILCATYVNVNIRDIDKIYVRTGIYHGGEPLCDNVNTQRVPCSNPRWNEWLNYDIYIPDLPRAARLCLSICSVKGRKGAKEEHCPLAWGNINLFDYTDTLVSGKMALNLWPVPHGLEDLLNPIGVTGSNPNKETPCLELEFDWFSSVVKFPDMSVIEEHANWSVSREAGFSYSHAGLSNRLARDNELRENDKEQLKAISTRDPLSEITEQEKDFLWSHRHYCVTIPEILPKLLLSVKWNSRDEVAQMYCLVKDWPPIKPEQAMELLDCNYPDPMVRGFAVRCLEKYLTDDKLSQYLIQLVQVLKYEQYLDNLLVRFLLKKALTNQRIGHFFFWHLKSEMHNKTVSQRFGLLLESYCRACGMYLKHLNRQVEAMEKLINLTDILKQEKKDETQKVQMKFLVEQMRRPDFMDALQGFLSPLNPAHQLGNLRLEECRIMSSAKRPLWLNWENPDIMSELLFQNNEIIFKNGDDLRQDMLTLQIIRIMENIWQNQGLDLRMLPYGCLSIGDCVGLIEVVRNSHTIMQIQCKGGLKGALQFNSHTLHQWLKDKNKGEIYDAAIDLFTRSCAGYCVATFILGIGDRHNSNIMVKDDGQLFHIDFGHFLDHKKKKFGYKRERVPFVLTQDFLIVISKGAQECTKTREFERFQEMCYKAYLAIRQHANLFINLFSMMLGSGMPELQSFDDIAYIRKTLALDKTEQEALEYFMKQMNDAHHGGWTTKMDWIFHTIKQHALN
# [11] = Solubility of the compound in water; format: physicochemical
# A549 = experiment: Antitumor activity against human A549 cells assessed as cell growth inhibition incubated for 72 hrs by Cell Titer-Glo assay; format: functional, cell-based; conditions: A549, 72 h
# mTORC2 [12] = target: T2, mTORC2; experiment: Inhibition of mTORC2 (unknown origin); format: protein-complex assay
# [13] = target: T3, Serine/threonine-protein kinase mTOR; experiment: Inhibition of mTOR (unknown origin)
# SF-268 = experiment: Antitumor activity against human SF-268 cells assessed as cell growth inhibition; format: functional, cell-based
# [14] = Antitumor activity against human U-87 MG cells assessed as cell growth inhibition; format: functional, cell-based, U-87MG ATCC
# DU-145 = experiment: Antitumor activity against human DU-145 cells assessed as cell growth inhibition; format: functional, cell-based
# PC-3 = experiment: Antitumor activity against human PC-3 cells assessed as cell growth inhibition; format: functional, cell-based
smiles,measurement,setting,value
CO[C@@H]1C[C@H](C[C@@H](C)[C@@H]2CC(=O)[C@H](C)/C=C(\C)[C@@H](O)[C@@H](OC)C(=O)[C@H](C)C[C@H](C)/C=C/C=C/C=C(\C)C(OCCO)C[C@@H]3CC[C@@H](C)[C@@](O)(O3)C(=O)C(=O)N3CCCC[C@H]3C(=O)O2)CC[C@H]1OCCCN1CCOC(C)(C)C1 (stereo partly specified),IC50,mTORC1 [1],< 0.316 nM
same,IC50,mTORC2 [2],> 10000 nM
CO[C@@H]1C[C@H](C[C@@H](C)[C@@H]2CC(=O)[C@H](C)/C=C(\C)[C@@H](O)[C@@H](OC)C(=O)[C@H](C)C[C@H](C)/C=C/C=C/C=C(\C)C(OCCO)C[C@@H]3CC[C@@H](C)[C@@](O)(O3)C(=O)C(=O)N3CCCC[C@H]3C(=O)O2)CC[C@H]1OCCCN1CCOC[C@@H]1C (stereo partly specified),IC50,mTORC1 [1],< 0.316 nM
same,IC50,mTORC2 [2],> 10000 nM
C[C@H]1COCCN1c1cc(N2CCOC[C@@H]2C)c2ccc(-c3ccc(CNCCO)cc3)nc2n1,IC50,[3],< 100 nM
CNC(=O)c1cccc(-c2ccc3c(N4CCOC[C@@H]4C)nc(N4CCO[C@@H]5CCC[C@@H]54)nc3n2)c1,inhibition,mTORC1 [4],89.9%
same,inhibition,mTORC1 [5],62%
same,inhibition,mTORC2 (Homo sapiens),89%
CC(C)n1nc(-c2cc3cccc(O)c3[nH]2)c2c(N)ncnc21,IC50,mTORC1 [6],< 5 nM
same,IC50,[7],100 nM
same,IC50,[8],100 nM
CN(C)CC(=O)Nc1ccc(-c2ccc3ncc4c(c3c2)n(-c2ccc(C(C)(C)C#N)cc2)c2nncn42)cn1,residual activity,[9],< 5%
CNC(=O)c1cccc(-c2ccc3c(N4CCOC[C@@H]4C)nc(N4CCOC[C@@H]4C)nc3n2)c1,inhibition,mTORC1 [4],87.7%
same,inhibition,mTORC1 [5],83.8%
same,inhibition,mTORC2 (Homo sapiens),73.9%
CO[C@@H]1C[C@H](C[C@@H](C)[C@@H]2CC(=O)[C@H](C)/C=C(\C)[C@@H](O)[C@@H](OC)C(=O)[C@H](C)C[C@H](C)/C=C/C=C/C=C(\C)C(OCCO)C[C@@H]3CC[C@@H](C)[C@@](O)(O3)C(=O)C(=O)N3CCCC[C@H]3C(=O)O2)CC[C@H]1OC(=O)NCCc1ccccc1 (stereo partly specified),IC50,mTORC1 [1],< 0.316 nM
same,IC50,mTORC2 [2],> 10000 nM
COc1ccc(-c2ccc3c(N4CCOC[C@@H]4C)nc(N4CCOC[C@@H]4C)cc3n2)cc1,IC50,[3],< 100 nM
CC(C)n1nc(-c2cc3cc(O)cc(F)c3[nH]2)c2c(N)ncnc21,IC50,mTORC1 [6],< 5 nM
same,IC50,[7],100 nM
same,IC50,[8],50 nM
COc1ccc(-c2ccc3c(N4CCOC[C@@H]4C)cc(N4CCOC[C@@H]4C)nc3n2)cc1,IC50,[3],< 100 nM
COc1cccc2cc(-c3nn(C4CCOCC4)c4ncnc(N)c34)[nH]c12,IC50,mTORC1 [6],< 5 nM
same,IC50,[10],100 nM
same,IC50,[7],10 nM
same,IC50,[8],10 nM
CC(=O)N1CCC(n2nc(-c3cc4cc(O)cc(Cl)c4[nH]3)c3c(N)ncnc32)CC1,IC50,mTORC1 [6],< 5 nM
same,IC50,[10],100 nM
same,IC50,[7],50 nM
same,IC50,[8],10 nM
CO[C@@H]1C[C@@H]2CC[C@@H](C)[C@@](O)(O2)C(=O)C(=O)N2CCCC[C@H]2C(=O)O[C@H]([C@H](C)C[C@@H]2CC[C@@H](O)[C@H](OC)C2)CC(=O)[C@H](C)/C=C(\C)[C@@H](OC(=O)C[n+]2csc(C)c2C)[C@@H](OC)C(=O)[C@H](C)C[C@H](C)/C=C/C=C/C=C/1C.[Br-],solubility,[11],10000 µg/mL
same,IC50,A549,3040 nM
CC(C)(O)c1ccc(-c2cnc3[nH]c(=O)n(CC4CCOCC4)c3n2)cn1,IC50,mTORC1 [6],176 nM
same,IC50,mTORC2 [12],2410 nM
same,IC50,[13],2550 nM
C[C@H]1COCCN1c1nc(N2CCO[C@@H]3CCCC[C@@H]32)nc2nc(-c3cccc(C4=NCC(C)(C)N4)c3)ccc12,inhibition,mTORC1 [4],77.7%
same,inhibition,mTORC1 [5],83.2%
same,inhibition,mTORC2 (Homo sapiens),56.2%
O=c1[nH]c2ncc(-c3ccc(-c4nc[nH]n4)cc3)nc2n1CCC1CCOCC1,IC50,mTORC1 [6],2 nM
same,IC50,mTORC2 [12],40 nM
same,IC50,[13],18 nM
CO[C@@H]1C[C@H](C[C@@H](C)[C@@H]2CC(=O)[C@H](C)/C=C(\C)[C@@H](O)[C@@H](OC)C(=O)[C@H](C)C[C@H](C)/C=C/C=C/C=C(\C)C(OCCO)C[C@@H]3CC[C@@H](C)[C@@](O)(O3)C(=O)C(=O)N3CCCC[C@H]3C(=O)O2)CC[C@H]1OCCCN1CCOC[C@H]1C (stereo partly specified),IC50,mTORC1 [1],< 0.316 nM
same,IC50,mTORC2 [2],> 10000 nM
COc1ccc(-c2ccc3c(N4CCOC[C@@H]4C)nc(N4CCOC[C@@H]4C)cc3n2)cc1CO,IC50,[3],< 100 nM
CO[C@@H]1C[C@@H]2CC[C@@H](C)[C@@](O)(O2)C(=O)C(=O)N2CCCC[C@H]2C(=O)O[C@H]([C@H](C)C[C@@H]2CC[C@@H](OC(=O)C[n+]3csc(C)c3C)[C@H](OC)C2)CC(=O)[C@H](C)/C=C(\C)[C@@H](O)[C@@H](OC)C(=O)[C@H](C)C[C@H](C)/C=C/C=C/C=C/1C.[Br-],solubility,[11],4200 µg/mL
same,IC50,A549,7400 nM
CO[C@@H]1C[C@@H]2CC[C@@H](C)[C@@](O)(O2)C(=O)C(=O)N2CCCC[C@H]2C(=O)O[C@H]([C@H](C)C[C@@H]2CC[C@@H](OC(=O)C[n+]3csc(C)c3C)[C@H](OC)C2)CC(=O)[C@H](C)/C=C(\C)[C@@H](OC(=O)C[n+]2csc(C)c2C)[C@@H](OC)C(=O)[C@H](C)C[C@H](C)/C=C/C=C/C=C/1C.[Br-].[Br-],solubility,[11],100000 µg/mL
same,IC50,A549,6230 nM
CO[C@@H]1C[C@H](C[C@@H](C)[C@@H]2CC(=O)[C@H](C)/C=C(\C)[C@@H](O)[C@@H](OC)C(=O)[C@H](C)C[C@H](C)/C=C/C=C/C=C(\C)C(OCCO)C[C@@H]3CC[C@@H](C)[C@@](O)(O3)C(=O)C(=O)N3CCCC[C@H]3C(=O)O2)CC[C@H]1OCCCN1C[C@@H](C)O[C@@H](C)C1 (stereo partly specified),IC50,mTORC1 [1],< 0.316 nM
same,IC50,mTORC2 [2],> 10000 nM
Nc1ncnc2c1c(-c1cc3cc(O)cc(Cl)c3[nH]1)nn2C1CCOCC1,IC50,mTORC1 [6],< 5 nM
same,IC50,[10],100 nM
same,IC50,[7],25 nM
same,IC50,[8],10 nM
CC(C)(C#N)c1ccc(-n2c3c4cc(-c5ccc(NC(=O)CNC6CCCCC6)nc5)ccc4ncc3n3cnnc23)cc1,residual activity,[9],< 5%
CO[C@H]1C[C@@H]2CC[C@@H](C)[C@@](O)(O2)C(=O)C(=O)N2CCCC[C@H]2C(=O)O[C@H]([C@H](C)C[C@@H]2CC[C@@H](O)[C@H](OC)C2)CC(=O)[C@H](C)/C=C(\C)[C@@H](O)[C@@H](OC)C(=O)[C@H](C)C[C@H](C)/C=C/C=C/C=C/1C [SIROLIMUS],IC50,A549,49400 nM
same,IC50,SF-268,2700 nM
same,IC50,[14],10000 nM
same,IC50,DU-145,4000 nM
same,IC50,PC-3,1300 nM
C[C@H]1COCCN1c1cc2nc(-c3cccc(CO)c3)ccc2c(N2CCOC[C@@H]2C)n1,IC50,[3],< 100 nM
